Test results: patent US12060347B2 (BRISTOL-MYERS SQUIBB COMPANY, priority 2016, dated 2024)

The compounds below were run against T1, human PAR4 (Homo sapiens, UniProt Q96RI0) (assay: PAR4 FLIPR assay: antagonism of agonist-peptide-induced calcium mobilization in PAR4-expressing HEK293 cells). Conditions: H-Ala-Phe(4-F)-[…]NH2-induced intracellular calcium mobilization, 11-point curves.
T1 construct: expressed in transfected cells; host or cells: HEK293 PAR4 Clone 1.2A (BMS Arctic ID 383940)
T1 sequence (Q96RI0 18-385): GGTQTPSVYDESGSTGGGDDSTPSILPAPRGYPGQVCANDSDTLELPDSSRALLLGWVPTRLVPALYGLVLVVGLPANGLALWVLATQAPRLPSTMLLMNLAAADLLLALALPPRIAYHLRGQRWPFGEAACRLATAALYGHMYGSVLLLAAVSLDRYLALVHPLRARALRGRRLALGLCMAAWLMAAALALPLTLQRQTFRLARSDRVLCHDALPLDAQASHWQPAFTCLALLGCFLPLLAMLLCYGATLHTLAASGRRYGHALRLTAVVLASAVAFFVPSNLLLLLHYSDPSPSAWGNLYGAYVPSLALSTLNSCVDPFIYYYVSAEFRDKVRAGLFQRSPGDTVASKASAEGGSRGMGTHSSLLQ
Format: cell-based
For `COc1cnc2c(-c3nc4cc(F)c(O[C@@H](C)[C@@H](C)OC(=O)Nc5cnnc(C)c5)cc4s3)cc(C)cc2n1` [Example 418, (2R,3S)-3-((5-fluoro-2-(2-methoxy-7-methylquinoxalin-5-yl)benzo[d]thiazol-6-yl)oxy)butan-2-yl (6-methylpyridazin-4-yl)carbamate], the IC50 was 1.3 nM.
In the case of `COc1cnc2c(-c3nc4cc(F)c(O[C@@H](C)[C@@H](C)OC(=O)Nc5cncc(C)c5)cc4s3)cc(C)cc2n1` [Example 419, (2R,3S)-3-((5-fluoro-2-(2-methoxy-7-methylquinoxalin-5-yl)benzo[d]thiazol-6-yl)oxy)butan-2-yl (5-methylpyridin-3-yl)carbamate], the IC50 is reported as 2 nM.
Compound `COc1cncc(NC(=O)O[C@H](C)[C@H](C)Oc2cc3sc(-c4cc(C)cc5nc(OC)cnc45)nc3cc2F)c1` [Example 420, (2R,3S)-3-((5-fluoro-2-(2-methoxy-7-methylquinoxalin-5-yl)benzo[d]thiazol-6-yl)oxy)butan-2-yl (5-methoxypyridin-3-yl)carbamate] has an IC50 of 2.2 nM.
`COc1cnc2c(-c3nc4cc(F)c(O[C@@H](C)[C@@H](C)OC(=O)Nc5cncc(C#N)c5)cc4s3)cc(C)cc2n1` [Example 421, (2R,3S)-3-((5-fluoro-2-(2-methoxy-7-methylquinoxalin-5-yl)benzo[d]thiazol-6-yl)oxy)butan-2-yl (5-cyanopyridin-3-yl)carbamate] was tested, and the IC50 was 1.8 nM.
With `COc1cnc2c(-c3nc4cc(F)c(O[C@@H](C)[C@@H](C)OC(=O)Nc5cnc(OC)c(C)c5)cc4s3)cc(C)cc2n1` [Example 422, (2R,3S)-3-((5-fluoro-2-(2-methoxy-7-methylquinoxalin-5-yl)benzo[d]thiazol-6-yl)oxy)butan-2-yl (6-methoxy-5-methylpyridin-3-yl)carbamate] the IC50 was 2.2 nM.
`COc1cnc2c(-c3nc4cc(F)c(O[C@@H](C)[C@@H](C)OC(=O)Nc5cccnc5)cc4s3)cc(C)cc2n1` [Example 423, (2R,3S)-3-((5-fluoro-2-(2-methoxy-7-methylquinoxalin-5-yl)benzo[d]thiazol-6-yl)oxy)butan-2-yl pyridin-3-ylcarbamate] was tested, and the IC50 was 4.2 nM.
Work on `COc1cnc2c(-c3nc4cc(F)c(O[C@@H](C)[C@@H](C)OC(=O)Nc5ccc(C(=O)N6CCOCC6)nc5)cc4s3)cc(C)cc2n1` [Example 426, (2R,3S)-3-((5-fluoro-2-(2-methoxy-7-methylquinoxalin-5-yl)benzo[d]thiazol-6-yl)oxy)butan-2-yl (6-(morpholine-4-carbonyl)pyridin-3-yl)carbamate] yielded an IC50 of 5.4 nM.
For `COc1cnc2c(-c3nc4c(Cl)c(F)c(OC[C@@H](C)OC(=O)Nc5ccnc(C(N)=O)c5)cc4s3)cc(C)cc2n1` [Example 427, (R)-1-((4-chloro-5-fluoro-2-(2-methoxy-7-methylquinoxalin-5-yl)benzo[d]thiazol-6-yl)oxy)propan-2-yl (2-carbamoylpyridin-4-yl)carbamate], the IC50 was 7.6 nM.
`CNC(=O)c1cc(NC(=O)O[C@H](C)COc2cc3sc(-c4cc(C)cc5nc(OC)cnc45)nc3c(Cl)c2F)ccn1` [Example 428, (R)-1-((4-chloro-5-fluoro-2-(2-methoxy-7-methylquinoxalin-5-yl)benzo[d]thiazol-6-yl)oxy)propan-2-yl (2-(methyl carbamoyl)pyridin-4-yl)carbamate] showed an IC50 of 5.9 nM.
With `COc1cnc2c(-c3nc4cc(F)c(OC[C@@H](C)OC(=O)Nc5cnc(C(N)=O)nc5)cc4s3)cc(C)cc2n1` [Example 429, (R)-1-((5-fluoro-2-(2-methoxy-7-methylquinoxalin-5-yl)benzo[d]thiazol-6-yl)oxy)propan-2-yl (2-carbamoylpyrimidin-5-yl)carbamate] the IC50 was 0.5 nM.
`CNC(=O)c1ncc(NC(=O)O[C@H](C)COc2cc3sc(-c4cc(C)cc5nc(OC)cnc45)nc3cc2F)cn1` [Example 430, (R)-1-((5-fluoro-2-(2-methoxy-7-methylquinoxalin-5-yl)benzo[d]thiazol-6-yl)oxy)propan-2-yl (2-(methylcarbamoyl)pyrimidin-5-yl)carbamate] was tested, and the IC50 was 0.9 nM.
In the case of `COc1cnc2c(-c3nc4cc(F)c(OC[C@@H](C)OC(=O)Nc5cnc(C(=O)N(C)C)nc5)cc4s3)cc(C)cc2n1` [Example 431, (R)-1-((5-fluoro-2-(2-methoxy-7-methylquinoxalin-5-yl)benzo[d]thiazol-6-yl)oxy)propan-2-yl (2-(dimethylcarbamoyl)pyrimidin-5-yl)carbamate], the IC50 is reported as 1.1 nM.
Work on `CNC(=O)c1ccc(NC(=O)O[C@H](C)COc2cc3sc(-c4cc(C)cc5nc(OC)cnc45)nc3cc2F)cn1` [Example 432, (R)-1-((5-fluoro-2-(2-methoxy-7-methylquinoxalin-5-yl)benzo[d]thiazol-6-yl)oxy)propan-2-yl (6-(methylcarbamoyl)pyridin-3-yl)carbamate] yielded an IC50 of 0.4 nM.
`COc1cnc2c(-c3nc4cc(F)c(OC[C@@H](C)OC(=O)Nc5ccc(C(N)=O)nc5)cc4s3)cc(C)cc2n1` [Example 433, (R)-1-((5-fluoro-2-(2-methoxy-7-methylquinoxalin-5-yl)benzo[d]thiazol-6-yl)oxy)propan-2-yl (6-carbamoylpyridin-3-yl)carbamate] showed an IC50 of 0.6 nM.
With `COc1cnc2c(-c3nc4cc(F)c(OC[C@@H](C)OC(=O)Nc5ccc(C(N)=O)nc5)cc4s3)cc(C)cc2n1` [Example 434, (R)-1-((5-fluoro-2-(2-methoxy-7-methylquinoxalin-5-yl)benzo[d]thiazol-6-yl)oxy)propan-2-yl (6-carbamoylpyridin-3-yl)carbamate] the IC50 was 1.4 nM.
For `COc1cnc2c(-c3nc4cc(F)c(OC[C@@H](C)OC(=O)Nc5ccc(C(=O)N6CCOCC6)nc5)cc4s3)cc(C)cc2n1` [Example 435, (R)-1-((5-fluoro-2-(2-methoxy-7-methylquinoxalin-5-yl)benzo[d]thiazol-6-yl)oxy)propan-2-yl (6-(morpholine-4-carbonyl)pyridin-3-yl)carbamate], the IC50 was 0.9 nM.
`CNC(=O)c1ccc(NC(=O)O[C@H](C)[C@H](C)Oc2cc3sc(-c4cc(C)cc5nc(OC)cnc45)nc3cc2F)cn1` [Example 436, (2R,3S)-3-((5-fluoro-2-(2-methoxy-7-methylquinoxalin-5-yl)benzo[d]thiazol-6-yl)oxy)butan-2-yl (6-(methylcarbamoyl)pyridin-3-yl)carbamate] showed an IC50 of 1.5 nM.
For `COc1cnc2c(-c3nc4cc(F)c(O[C@@H](C)[C@@H](C)OC(=O)Nc5cnc(C(=O)N6CCOCC6)nc5)cc4s3)cc(C)cc2n1` [Example 437, (2R,3S)-3-((5-fluoro-2-(2-methoxy-7-methylquinoxalin-5-yl)benzo[d]thiazol-6-yl)oxy)butan-2-yl (2-(morpholine-4-carbonyl)pyrimidin-5-yl)carbamate], the IC50 was 4.9 nM.
Work on `COc1cnc2c(-c3nc4cc(F)c(O[C@@H](C)[C@@H](C)OC(=O)Nc5ccc(C(=O)N(C)C)nc5)cc4s3)cc(C)cc2n1` [Example 438, (2R,3S)-3-((5-fluoro-2-(2-methoxy-7-methylquinoxalin-5-yl)benzo[d]thiazol-6-yl)oxy)butan-2-yl (6-(dimethylcarbamoyl)pyridin-3-yl)carbamate] yielded an IC50 of 1.9 nM.
`COc1cnc2c(-c3nc4cc(F)c(O[C@@H](C)[C@@H](C)OC(=O)Nc5ccc(C(=O)NC[C@@H](C)O)nc5)cc4s3)cc(C)cc2n1` [Example 439, (2R,3S)-3-((5-fluoro-2-(2-methoxy-7-methylquinoxalin-5-yl)benzo[d]thiazol-6-yl)oxy)butan-2-yl (6-(((R)-2-hydroxypropyl)carbamoyl)pyridin-3-yl)carbamate] was tested, and the IC50 was 0.9 nM.
`CNC(=O)c1ncc(NC(=O)O[C@H](C)[C@H](C)Oc2cc3sc(-c4cc(C)cc5nc(OC)cnc45)nc3cc2F)cn1` [Example 440, (2R,3S)-3-((5-fluoro-2-(2-methoxy-7-methylquinoxalin-5-yl)benzo[d]thiazol-6-yl)oxy)butan-2-yl (2-(methylcarbamoyl)pyrimidin-5-yl)carbamate] gave an IC50 of 0.8 nM.
`COc1cnc2c(-c3nc4cc(F)c(O[C@@H](C)[C@@H](C)OC(=O)Nc5ccc(C(=O)NC[C@H](C)O)nc5)cc4s3)cc(C)cc2n1` [Example 441, (2R,3S)-3-((5-fluoro-2-(2-methoxy-7-methylquinoxalin-5-yl)benzo[d]thiazol-6-yl)oxy)butan-2-yl (6-(((S)-2-hydroxypropyl)carbamoyl)pyridin-3-yl)carbamate] gave an IC50 of 0.9 nM.
For `COc1cnc2c(-c3nc4cc(F)c(OC[C@@H](C)OC(=O)Nc5ccnc(C(=O)NCCO)c5)cc4s3)cc(C)cc2n1` [Example 442, (R)-1-((5-fluoro-2-(2-methoxy-7-methylquinoxalin-5-yl)benzo[d]thiazol-6-yl)oxy)propan-2-yl (2-((2-hydroxyethyl)carbamoyl)pyridin-4-yl)carbamate], the IC50 was 0.8 nM.
`CNC(=O)c1cc(NC(=O)O[C@H](C)COc2cc3sc(-c4cc(C)cc5nc(OC)cnc45)nc3cc2F)ccn1` [Example 443, (R)-1-((5-fluoro-2-(2-methoxy-7-methylquinoxalin-5-yl)benzo[d]thiazol-6-yl)oxy)propan-2-yl (2-(methylcarbamoyl)pyridin-4-yl)carbamate] showed an IC50 of 0.6 nM.
`COc1cnc2c(-c3nc4cc(F)c(OC[C@@H](C)OC(=O)Nc5ccnc(C(N)=O)c5)cc4s3)cc(C)cc2n1` [Example 444, (R)-1-((5-fluoro-2-(2-methoxy-7-methylquinoxalin-5-yl)benzo[d]thiazol-6-yl)oxy)propan-2-yl (2-carbamoylpyridin-4-yl)carbamate] gave an IC50 of 0.8 nM.
Compound `COc1cnc2c(-c3nc4cc(F)c(OC[C@@H](C)OC(=O)Nc5ccc(C(=O)NCCO)nc5)cc4s3)cc(C)cc2n1` [Example 445, (R)-1-((5-fluoro-2-(2-methoxy-7-methylquinoxalin-5-yl)benzo[d]thiazol-6-yl)oxy)propan-2-yl (6-((2-hydroxyethyl)carbamoyl)pyridin-3-yl)carbamate] has an IC50 of 3.2 nM.
